According to patent publication US5919771A, “Urea and thiourea derivatives of glycopeptides” (Eli Lilly and Company, priority 1998, dated 1999):

Legend:
Format in all cases: cell-based
[1] = system: Enterococcus faecium and faecalis (RESISTANT); conditions: geometric mean of 4-6 isolates
Method: (§1) The antibacterial efficacy of the present compounds is illustrated by Table II. The minimal inhibitory concentrations (MICs) were determined using a standard broth micro-dilution assay.

[2] = system: Enterococcus faecium and faecalis (SENSITIVE); conditions: geometric mean of 4-6 isolates
Method: as §1

[3] = system: Staphylococcus aureus 446; experiment: MIC, standard broth micro-dilution assay, SA 446
Method: as §1

[4] = system: Staphylococcus aureus 489; experiment: MIC, standard broth micro-dilution assay, SA 489
Method: as §1

[5] = system: Staphylococcus aureus 447; experiment: MIC, standard broth micro-dilution assay, SA 447
Method: as §1

[6] = system: Staphylococcus haemolyticus 105; experiment: MIC, standard broth micro-dilution assay, SH 105
Method: as §1

[7] = system: Staphylococcus haemolyticus 415; experiment: MIC, standard broth micro-dilution assay, SH 415
Method: as §1

[8] = system: Staphylococcus epidermidis 270; experiment: MIC, standard broth micro-dilution assay, SE 270
Method: as §1

[9] = system: Streptococcus pyogenes C203; experiment: MIC, standard broth micro-dilution assay, SPY C203
Method: as §1

[10] = system: Streptococcus pneumoniae P1; experiment: MIC, standard broth micro-dilution assay, SPN P1
Method: as §1

Structure (SMILES) | Minimal Inhibitory Concentration (MIC) RESISTANT [1] | Minimal Inhibitory Concentration (MIC) SENSITIVE [2] | Minimal Inhibitory Concentration (MIC) SA 446 [3] | Minimal Inhibitory Concentration (MIC) SA 489 [4] | Minimal Inhibitory Concentration (MIC) SA 447 [5] | Minimal Inhibitory Concentration (MIC) SH 105 [6] | Minimal Inhibitory Concentration (MIC) SH 415 [7] | Minimal Inhibitory Concentration (MIC) SE 270 [8] | Minimal Inhibitory Concentration (MIC) SPY C203 [9] | Minimal Inhibitory Concentration (MIC) SPN P1 [10]
CC(C)CC(C(=O)NC1C(=O)NC(CC(N)=O)C(=O)NC2C(=O)NC3C(=O)NC(C(=O)NC(C(=O)O)c4cc(O)cc(O)c4-c4cc3ccc4O)C(OC3CC(C)(N)C(O)C(C)O3)c3ccc(c(Cl)c3)Oc3cc2cc(c3OC2OC(CO)C(O)C(O)C2OC2CC(C)(NCc3ccc(Oc4ccccc4)cc3)C(O)C(C)O2)Oc2ccc(cc2Cl)C1O)N(C)C(=S)Nc1ccc(N(C)C)cc1 (stereo not drawn) [Example 19, N^LEU -((p-(DIMETHYLAMINO)-PHENYL)THIOCARBAMOYL)-N^DISACC -(p-PHENOXYBENZYL)A82846B] | 19 | 2.6 | 2 | 2 | 2 | 2 | 4 | 2 | 0.25 | 2
CC(C)CC(C(=O)NC1C(=O)NC(CC(N)=O)C(=O)NC2C(=O)NC3C(=O)NC(C(=O)NC(C(=O)O)c4cc(O)cc(O)c4-c4cc3ccc4O)C(OC3CC(C)(N)C(O)C(C)O3)c3ccc(c(Cl)c3)Oc3cc2cc(c3OC2OC(CO)C(O)C(O)C2OC2CC(C)(NCc3ccc(Oc4ccccc4)cc3)C(O)C(C)O2)Oc2ccc(cc2Cl)C1O)N(C)C(=S)Nc1ccc(OCc2ccccc2)cc1 (stereo not drawn) [Example 20, N^LEU -((p-(BENZYLOXY)PHENYL)-THIOCARBAMOYL)-N^DISACC -(p-PHENOXYBENZYL)A82846B] | 9.5 | 5.6 | 4 | 2 | 2 | 2 | 2 | 1 | ≤ 0.06 | 4
CC(C)CC(C(=O)NC1C(=O)NC(CC(N)=O)C(=O)NC2C(=O)NC3C(=O)NC(C(=O)NC(C(=O)O)c4cc(O)cc(O)c4-c4cc3ccc4O)C(OC3CC(C)(N)C(O)C(C)O3)c3ccc(c(Cl)c3)Oc3cc2cc(c3OC2OC(CO)C(O)C(O)C2OC2CC(C)(NCc3ccc(-c4ccc(Cl)cc4)cc3)C(O)C(C)O2)Oc2ccc(cc2Cl)C1O)N(C)C(=S)Nc1ccccc1 (stereo not drawn) [Example 22, N^LEU -(PHENYLTHIOCARBAMOYL)-N^DISACC -(p-(p-CHLOROPHENYL)-BENZYL)A82846B] | 6.7 | 2.6 | 2 | 1 | 1 | 1 | 2 | 0.5 | ≤ .06 | ≤ .06
